# Results taken from article doi:10.1101/2022.02.09.479835v1 (biorxiv, 2022).
# Where a SMILES comes first, the peptide text is derived from it. The star is where a group is joined. Cbz = O=C(OCc1ccccc1)*
# Target: 3CL-Pro (Severe acute respiratory syndrome coronavirus 2, UniProt P0DTD1)
# Experiment: biochemical
# Details: not given
row,Compound,IC50 [µM]
1,C[C@H](NC(=O)[C@H](Cc1ccccc1)NC(=O)OCc1ccccc1)C(=O)CF [Z-FA-FMK],9.67

# Target: human CatL (cathepsin-L, CTSL) (Homo sapiens, UniProt P07711)
# Sequence (P07711 114-288): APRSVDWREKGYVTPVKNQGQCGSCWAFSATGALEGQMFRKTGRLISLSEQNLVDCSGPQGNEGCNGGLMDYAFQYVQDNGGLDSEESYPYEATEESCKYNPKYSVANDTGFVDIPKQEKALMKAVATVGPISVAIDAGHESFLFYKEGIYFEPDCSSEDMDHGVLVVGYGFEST
# Sequence (P07711 292-333): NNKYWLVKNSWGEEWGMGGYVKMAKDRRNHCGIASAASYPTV
# Experiment: FRET peptide cleavage HTS
# Format: biochemical
# Details: read-out: % inhibition at 20 uM
row,Compound,inhibition at 20 µM [%]
1,CCCN1CCN(c2ccc(C(=O)NC3(C(=O)NCC#N)CCCCC3)cc2)CC1 [balicatib],> 50
2,CC(C)C[C@@H](C=O)NC(=O)[C@H](CC(C)C)NC(=O)[C@H](CC(C)C)NC(=O)OCc1ccccc1 [MG-132] (Cbz-Leu-Leu-Leu-aldehyde),> 50
3,CC(C)C[C@H](NC(=O)OCc1ccccc1)C(=O)N[C@@H](C[C@@H]1CCNC1=O)C(O)S(=O)(=O)O (stereo partly drawn) [GC-376],> 50
4,CC(=O)N[C@@H](CC(C)C)C(=O)N[C@@H](CC(C)C)C(=O)N[C@H](C=O)CCCNC(=N)N [leupeptin hemisulfate],> 50
5,C[C@H](NC(=O)[C@H](Cc1ccccc1)NC(=O)OCc1ccccc1)C(=O)CF [Z-FA-FMK],> 50
